# Data taken from patent publication US20050124690A1, “Pharmaceutical composition for the treatment of seborrhea containing 4-hydroxy-5-methoxy-4-[2-methyl-3(3-methyl-2-butenyl)-2-oxiranyl]-1-oxaspiro[2,5]octan-6-one” (priority 2002, published 2005).
# Experiments:
# [1] = tested on: four-week old female rats; test: Acute dermal toxicity test; assay type: in vivo; conditions: 4000 mg/kg applied to about 10% of body surface area of shaved rats; observation for 15 days
# Procedure: 4-hydroxy-5-methoxy-4-[2-methyl-3-(3-methyl-2-butenyl)-2-oxiranyl]-1-oxaspiro[2,5]octan-6-one, which was isolated from the culture filtrate and then purified, was tested for acute dermal toxicity using four-week old female rats, according to the standards provided by the Korean Food & Drug Administration. After the rats were shaved, 4000 mg/kg (body weight) of the compound was uniformly applied to about 10% of body surface area of rats.
# [2] = tested on: Pityrosporum ovale; test: Paper disc diffusion test for antifungal activity; assay type: cell-based; conditions: 45 μl of 0.1% acetone solution on paper disc; 30° C., 3 days
# Procedure: A paper disc diffusion method was used to investigate antifungal activity against a fungus, Pityrosporum ovale. Sabouraud's dextrose solid medium containing 1% of corn oil and 0.1% Tween-80 was aliquotted onto 87 mm plane plates, and allowed to harden. In order to examine antifungal activity against P. ovale, […] of P. ovale cultured in Sabouraud's dextrose solid medium at 30° C. for 2 days was smeared onto the plates, and then dried. 45 μl of an acetone solution containing 0.1% of 4-hydroxy-5-methoxy-4-[2-methyl-3-(3-methyl-2-butenyl)-2-oxiranyl]-1-oxaspiro[2,5]octan-6-one was aliquated onto paper discs, and, after completely evaporating off the acetone, put onto the P. ovale-smeared medium. Plates not treated with 4-hydroxy-5-methoxy-4-[2-methyl-3-(3-methyl-2-butenyl)-2-oxiranyl]-1-oxaspiro[2,5]octan-6-one were used as controls. Thereafter, incubation was carried out at 30° C. for 3 days, and it was observed whether a growth inhibition area formed around the discs or not.
# [3] = tested on: Pityrosporum ovale; test: Minimum inhibition concentration (MIC) on Sabouraud's dextrose solid medium; assay type: cell-based; conditions: Malassezia furfur; solid medium with 1% corn oil and 0.1% Tween-80; 30° C., 3 to 5 days; naked eye
# Procedure: For use in this test, P. ovale was cultured in Sabouraud's dextrose solid medium containing 1% corn oil and 0.1% Tween-80 at 30° C. for 2 days. After Sabouraud's dextrose solid medium containing 1% corn oil and 0.1% Tween-80 was aliquotted onto 6 cm plane plates, 4-hydroxy-5-methoxy-4-[2-methyl-3-(3-methyl-2-butenyl)-2-oxiranyl]-1-oxaspiro[2,5]octan-6-one was added in various concentration. When the medium was hardened, 150 μl of the cultured P. ovale was smeared onto the medium, followed by incubation at 30° C. for 3 to 5 days. Observing with naked eye, a minimum concentration capable of inhibiting the growth of the fungus was determined as MIC (Minimum Inhibition Concentration).
# MIC versus P. ovale of 4-hydroxy-5-methoxy-4-[2-methyl-3-(3-methyl-2-butenyl)-2-oxiranyl]-1-oxaspiro[2,5]octan-6-one is given in Table 1, below.
compound,measurement,setting,value
"COC1C(=O)CCC2(CO2)C1(O)C1(C)OC1CC=C(C)C (stereo not drawn) [4-hydroxy-5-methoxy-4-[2-methyl-3-(3-methyl-2-butenyl)-2-oxiranyl]-1-oxaspiro[2,5]octan-6-one]","irritation, such as erythema or crusting",[1],not detected irritation
same,antifungal activity against P. ovale (growth inhibition area around the discs),[2],found to have antifungal activity
same,MIC,[3],< 2 µg/mL
